Results from US20250213519A1, “SYNERGY FOR INCREASING INSULIN SENSITIVITY” (Board of Supervisors of Louisiana State University and …, priority 2022, published 2025).
Entries after “also recorded” stand apart in the source; their conditions may differ.

How the values were obtained:
human adipocytes [1] = assay: Lipolysis assay (agonist-stimulated glycerol release); format: cell-based; conditions: agonist exposure 4.5 hours, white and NRBC-treated adipocytes
Procedure: Thermogenesis is fueled by lipolysis, so we determined whether agonist-stimulated glycerol release, a measure of lipolysis, reflected the increases in receptors and lipolysis machinery in NRBC-treated adipocytes. First, adipocyte cultures from four donors who had obesity were treated with cell medium (untreated control cells) or NRBC for seven days. On the day of the acute lipolysis assay, cells were exposed to the individual receptor agonists for […] in buffer and glycerol released into the cell supernatant was measured. Non-hydrolyzable 8-cpt-cAMP, a potent activator of PKA signaling, was also evaluated in each experiment as a positive control since it bypasses individual receptors and measures the maximum capacity for lipolysis (36). The βARs, PTHR, MC1R, GPER and ADORA2B are all stimulatory G-protein (Gs) coupled receptors and signal through the CAMP-PKA signal transduction mechanism. NPR1 is not a Gs-coupled receptor and signals through an alternate mechanism of guanylate cyclase-cGMP-protein kinase G (PKG).
Cells were differentiated in 96-well plates and treated with cell medium (untreated) or NRBC for seven days. On the day of the lipolysis assay, cells were exposed for 4.5 hours to buffer (KRB with 1% BSA) or receptor agonists dissolved in buffer. Agonists were used at concentrations shown to give maximum responses and were: 8-Cpt-cAMP 200 μM non-hydrolyzable PKA activator of maximum stimulated lipolysis (cAMP) (36), atrial natriuretic peptide 0.1 μM for NPR1 and NPR3(37), parathyroid hormone (amino acids 1-34) 1 μM for PTHR(38), isoproterenol 1 μM all βARs and dobutamine 1 μM for β1AR (39), estradiol 1 μM for GPER (40), growth hormone 250 ng/ml for GHR (41), adrenocorticotropin hormone 1 μM for MC1R (42), bile acid chenodeoxycholic acid 30 μM for TGR5(43), adenosine 1 μM for ADORA1 and ADORA2B (44), and menthol 100 μM for TRPM8(45). Supernatants were removed for measurement of glycerol released using Glycerol Reagent A, and concentrations were determined using a standard curve. Data are from four or five experiments each with cells from different donors with BMI from 27 to 36.

CDK5 = CDK5 (Homo sapiens, UniProt Q00535); conditions: cited from earlier work
human adipocytes [2] = assay: mRNA levels (qRT-PCR) in human adipocyte cultures treated for seven days; format: cell-based; conditions: for gene expression, carotenoid alone: 2 μM carotenoid individually, seven days
human adipocytes [3] = assay: as above; format: cell-based; conditions: for UCP1 gene expression, carotenoid combined with NR: 2 μM carotenoid + 8 μM NR, seven days, vs NR alone; for gene expression, β-carotene added to naringenin: 2 μM β-carotene + 8 μM naringenin extract, 7 days
From the text: In adipocytes, CDK5 inhibitors reduce adipogenesis and increase genes for energy expenditure by altering PPARγ target gene selection. We measured the expression of the PPARα/γ direct target gene UCP1 after treating human adipocyte cultures with CDK5-inhibiting flavonols combined with naringenin for seven days.
Human adipose-derived stem cells from overweight and obese female donors were purchased from LaCell, LLC (New Orleans, Louisiana) or isolated from lipoaspirate waste donated post-surgery from women with obesity using methods as previously described (31). Cells were seeded, maintained until two days after becoming confluent, and differentiated into adipocytes in the presence of rosiglitazone and isobutylmethylxanthine for five days as previously described (25). […], dissolved in DMSO at 1000×, started 5 days after the differentiation period and lasted for seven days in adipocyte maintenance medium with heat inactivated serum, before RNA and protein were isolated from adipocyte cultures.
Quantitative reverse transcriptase and real-time PCR were conducted in one reaction with the gene-specific reverse PCR primer also priming the cDNA synthesis as previously described (25). Primer-probe sequences for UCP1, GLUT4, ATGL, adiponectin, PGC-1α and ribosomal RPL13A, used to adjust target gene values for total RNA in each sample, have been previously reported (25). […] Predesigned human primer and probe sets from Thermofisher Scientific are PM20D1 Hs00399438_m1; ANGPTL4 Hs00211522_m1; GDF11 Hs00195156_m1; S100B Hs00902901_m1.

human adipocytes [4] = assay: Protein levels by Western blotting in human adipocytes treated for seven days; format: cell-based
[5] = Case study of naringenin in an individual with obesity and diabetes; format: in vivo, human
Procedure: Next, we gave 150 mg of naringenin extract in 500 mg of orange extract three times a day by capsule to a person who was obese and had type 2 diabetes that was only treated with diet. They took the capsule three times a day for 8 weeks without going on a diet or changing their exercise habits. […] For an obesity drug to get approval for weight loss it should cause a loss of 5%, so the results were close to what one can expect for a drug. Their insulin resistance went down by 20% and their metabolic rate went up by 3 percent.
We went back to the person whom we tested at 150 mg three times a day with naringenin, and tested them with 300 mg three times a day. They maintained the loss on the lower dose of naringenin and had also lost further weight, so they were below their natural weight set point.

human adipocytes [6] = assay: Protein levels by Western blotting in human adipocytes treated for seven days; format: cell-based; conditions: 8 μM NR or 50 nM myricetin, 7 days
From the text: Since we saw an increase in SIRT3 mRNA and myricetin upregulates SIRT3 protein in adipocytes from mice, we analyzed levels of SIRT3 protein in human adipocytes treated for seven days with the same concentrations of compounds. Protein was isolated from adipocytes and analyzed on immunoblots probed with antibodies that specifically bind human SIRT3 or human β-actin. […] However, adding myr to NR+BC boosted SIRT3 protein by 37%.
Human adipose-derived stem cells from overweight and obese female donors were purchased from LaCell, LLC (New Orleans, Louisiana) or isolated from lipoaspirate waste donated post-surgery from women with obesity using methods as previously described (31). Cells were seeded, maintained until two days after becoming confluent, and differentiated into adipocytes in the presence of rosiglitazone and isobutylmethylxanthine for five days as previously described (25). Treatments of adipocytes with 8 μM NR and 2 μM carotenoid, dissolved in DMSO at 1000×, started 5 days after the differentiation period and lasted for seven days in adipocyte maintenance medium with heat inactivated serum, before RNA and protein were isolated from adipocyte cultures.
Whole cell protein was isolated from differentiated cell cultures after treatment for seven days, lysed with RIPA buffer containing protease and phosphatase inhibitors, and pushed through a 20-gauge needle four times to disrupt organelles. Fifty micrograms of total cell protein were loaded per lane and resolved in 7.5% SDS-PAGE gels, transferred to nitrocellulose membranes, and probed overnight at 4° C. with specific primary antibodies. Anti-rabbit or -mouse secondary antibodies conjugated to horseradish peroxidase were used for detection of target proteins. Image J was used to quantify protein bands on Western blots. To adjust for variations in total protein loaded in each lane, β-actin was used.

human fat cells = assay: Oxygen consumption rate of human fat cells; format: cell-based
From the text: Referring to FIG. 8, cells consume oxygen while metabolizing fat for thermogenic energy expenditure, and we directly measured oxygen consumption rate.

clinical = conditions: human, in vivo, 150 mg
[7] = 150 mg three times a day, 8 weeks
[8] = 150 mg three times a day, eight weeks

Sequence of CDK5 (Q00535 whole entry, species assumed): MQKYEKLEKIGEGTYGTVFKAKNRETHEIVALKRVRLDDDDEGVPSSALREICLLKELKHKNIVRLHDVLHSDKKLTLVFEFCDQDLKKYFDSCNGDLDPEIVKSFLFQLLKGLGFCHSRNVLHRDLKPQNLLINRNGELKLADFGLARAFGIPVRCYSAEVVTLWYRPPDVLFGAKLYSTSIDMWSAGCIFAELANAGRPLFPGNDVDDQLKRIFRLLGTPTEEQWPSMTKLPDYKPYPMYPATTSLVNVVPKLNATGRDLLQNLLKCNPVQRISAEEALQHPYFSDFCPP
Sequence of CDK5 (Q15078 whole entry partner, species assumed): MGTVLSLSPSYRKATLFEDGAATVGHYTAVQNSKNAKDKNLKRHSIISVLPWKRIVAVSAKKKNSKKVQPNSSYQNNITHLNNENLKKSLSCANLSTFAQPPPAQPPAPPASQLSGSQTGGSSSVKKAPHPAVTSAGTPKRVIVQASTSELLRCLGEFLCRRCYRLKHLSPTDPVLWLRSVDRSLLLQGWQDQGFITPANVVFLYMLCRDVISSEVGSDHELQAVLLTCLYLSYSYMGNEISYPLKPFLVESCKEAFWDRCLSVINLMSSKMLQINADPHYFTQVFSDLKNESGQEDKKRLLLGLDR

growth hormone: human pituitary growth hormone, GHR agonist in lipolysis assay
lipolysis stimulated by the receptor agonist itself (human adipocytes [1]): neither growth hormone nor estrogen stimulated lipolysis

O=c1c(O)c(-c2ccc(O)cc2)oc2cc(O)cc(O)c12 [kaempferol, reference compound]
CDK5 kinase activity inhibition EC50 (in words) (CDK5): low micromolar range
EC50 (CDK5; read-out: CDK5 inhibition EC50): 66 µM

adrenocorticotropin hormone (SYSMEHFRWGKPVGKKRRPVKVYPNGAEDESAEAFPLEF; Corticotropin; UniProt P01189 138-176, looked up) [ACTH, MC1R agonist used in lipolysis assay]
lipolysis stimulated by the receptor agonist itself (human adipocytes [1]): no effect

C[C@]12CC[C@@H]3c4ccc(O)cc4CC[C@H]3[C@@H]1CC[C@@H]2O [estrogen, estradiol]
lipolysis stimulated by the receptor agonist itself (human adipocytes [1]): small reduction in lipolysis; also recorded: neither growth hormone nor estrogen stimulated lipolysis

CC(C)=CCC/C(C)=C/C=C/C(C)=C/C=C/C(C)=C/C=C/C=C(C)/C=C/C=C(C)/C=C/C=C(\C)CCC=C(C)C [lycopene]
gene expression, carotenoid alone (human adipocytes [2]): no effect on gene expression
UCP1 gene expression, carotenoid combined with NR (human adipocytes [3]): did not alter NR-stimulated UCP1 levels
UCP1 gene expression, carotenoid combined with NR (human adipocytes [3]; listed as Lycopene): did not alter the NR response

parathyroid hormone (1-34) [PTH]
lipolysis stimulated by the receptor agonist itself (human adipocytes [1]): highest in control white adipocytes

Nc1ncnc2c1ncn2[C@@H]1O[C@H](CO)[C@@H](O)[C@H]1O [adenosine]
lipolysis stimulated by the receptor agonist itself (human adipocytes [1]): no effect

CC1=C(/C=C/C(C)=C/C=C/C(C)=C/C=C/C=C(C)/C=C/C=C(C)/C=C/C2=C(C)CCCC2(C)C)C(C)(C)CCC1 [β-carotene, β-Carotene]
gene expression, carotenoid alone (human adipocytes [2]): no effect on gene expression
SIRT3 mRNA expression (human adipocytes [3]; 2 μM BC added to NR+myr, vs NR or NR+myricetin): significantly increased SIRT3 expression
UCP1 gene expression, carotenoid combined with NR (human adipocytes [3]; listed as BC): synergistic; also recorded: synergistically enhanced levels of UCP1
gene expression, β-carotene added to naringenin (human adipocytes [3]): synergistically enhances the effects of naringenin on gene expression; also recorded: synergistically induces gene expression
gene expression, β-carotene added to naringenin (human adipocytes [3]; listed as beta-carotene): synergistically increases expression of genes for thermogenic energy expenditure and insulin sensitivity

O=C1C[C@@H](c2ccc(O)cc2)Oc2cc(O)cc(O)c21 [naringenin]
UCP-1 expression (human adipocytes [2]; human fat cells in culture and adult adipose specimens, naringenin alone): caused an increase in Uncoupling Protein-1 (UCP-1)
PGC-1α protein levels vs untreated control (human adipocytes [4]; 8 μM NR, 2 μM BC, 7 days): approximately two-fold
protein levels of PPARα, PPARγ, PGC-1α and NAMPT (human adipocytes [4]; NR alone): did not upregulate protein levels
UCP-1 and adiponectin protein levels (human adipocytes [4]; naringenin 8 μM over 7 days (FIG. 10)): protein levels for UCP-1 and adiponectin increased
body weight loss [5, 7]: 2.3%
decrease in insulin resistance [5, 7]: 20%
increase in metabolic rate [5, 7]: 3%
increase in energy expenditure [5, 8]: 3.5%
reduction of fasting insulin concentrations [5, 8]: 20%
body weight at higher dose ([5]; 300 mg three times a day, same person): only maintained their weight loss without adding further weight loss
diabetes status ([5]; after weight loss following the 150 mg dose): resolved their diabetes
SIRT3 protein levels, single agent (human adipocytes [6]): upregulate SIRT3 protein levels
basal and maximal energy expenditure (oxygen consumption rate) (human fat cells): strong inducer of basal and maximal energy expenditure
Cmax (clinical): ~16 µM
half-life (clinical): 3 h
UCP1 and GLUT4 mRNA, naringenin concentration curve (human adipocytes [3]; naringenin 0.03 μM to 8 μM with constant 3 μM myricetin): increased gene expression in a concentration-dependent manner
adiponectin production (human adipocytes [3]; naringenin alone (FIG. 9)): increased production of a secreted hormone (adiponectin)

CC1=C[C@H](O)CC(C)(C)[C@H]1/C=C/C(C)=C/C=C/C(C)=C/C=C/C=C(C)/C=C/C=C(C)/C=C/C1=C(C)C[C@@H](O)CC1(C)C [lutein]
gene expression, carotenoid alone (human adipocytes [2]): no effect on gene expression
UCP1 gene expression, carotenoid combined with NR (human adipocytes [3]): synergistic; also recorded: synergistically enhanced levels of UCP1
